The text below walks through data of ChEMBL document CHEMBL5126528, “Recent strategies targeting Embryonic Ectoderm Development (EED) for cancer therapy: Allosteric inhibitors, PPI inhibitors, and PROTACs” (Eur J Med Chem, 2022).

≈ marks a conversion by molar mass, not a printed value. Structures can show the parent of a compound that is named as a salt.

A short description of data set [1]: Inhibition of EZH2-EED (unknown origin) protein interaction by FP binding assay. Further details: species or system Homo sapiens.
A short description of data set [2]: Binding affinity to EZH2-EED (unknown origin) protein interaction assessed as inhibition constant by FP binding assay. Further details: species or system Homo sapiens.
The species named for another data set is Homo sapiens. Briefly: Inhibition of GST-tagged EZH2/FLAG-tagged EED (unknown origin) protein protein interaction at 100 uM incubated for 1 hr by AlphaLISA method relative to control. Background: Alpha assays give light when donor and acceptor beads are brought close together.
Data set [3] in a line: Inhibition of PRC2 (unknown origin). Further details: species or system Homo sapiens.
The target in data set [4] is T1, Polycomb protein EED (Homo sapiens, UniProt O75530). As to the kind of experiment: Binding affinity to EED (unknown origin) assessed as dissociation constant by SPR analysis. In general terms: SPR reads the build-up and loss of mass on a sensor chip optically.
Target sequence in this assay (O75530 whole entry): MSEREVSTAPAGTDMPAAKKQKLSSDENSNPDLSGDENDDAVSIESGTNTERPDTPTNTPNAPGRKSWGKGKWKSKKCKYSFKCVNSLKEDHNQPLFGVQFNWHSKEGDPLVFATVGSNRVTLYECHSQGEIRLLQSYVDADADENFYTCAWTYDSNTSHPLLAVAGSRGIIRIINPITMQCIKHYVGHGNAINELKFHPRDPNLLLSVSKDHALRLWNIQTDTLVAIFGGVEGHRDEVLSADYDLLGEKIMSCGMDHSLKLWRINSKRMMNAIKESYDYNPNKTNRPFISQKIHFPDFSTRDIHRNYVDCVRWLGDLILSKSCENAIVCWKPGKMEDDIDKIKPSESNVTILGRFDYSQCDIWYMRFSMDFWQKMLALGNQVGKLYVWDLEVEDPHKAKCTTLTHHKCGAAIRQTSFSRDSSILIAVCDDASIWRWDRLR
Data set [5] concerns BC. As to the kind of experiment: Inhibition of cell growth in human multiple BC cells bearing EZH2 […] mutant. It counts as functional, cell-based.
Data set [6] has as its system Lymphoma cell line. As to the kind of experiment: Inhibition of cell growth in human Lymphoma cell line bearing EZH2 […] mutant. It is filed as functional, cell-based.
Data set [7] has as its system BC. Briefly: Inhibition of cell growth in human multiple BC cells bearing wildtype EZH2. It counts as functional, cell-based.
Data set [8] deals with Lymphoma cell line. Briefly: Inhibition of cell growth in human Lymphoma cell line bearing wildtype EZH2. It is filed as functional, cell-based.
A short description of data set [9]: Inhibition of FITC-labeled EZH2 (39 to 63 residues) (unknown origin)/N-terminal 6x His-tagged human EED protein interaction by incubated for 2 hrs FP-based competitive assay.
A short description of data set [10]: Inhibition of GST-tagged EZH2/FLAG-tagged EED (unknown origin) protein protein interaction incubated for 1 hr by AlphaLISA method. Further details: species or system Homo sapiens.
Data set [11] deals with T1, Polycomb protein EED. As to the kind of experiment: Inhibition of human N-terminal His-6 tagged EED expressed in Escherichia coli strain […] by SPR analysis.
Target sequence in this assay (O75530 whole entry): as above
In data set [12] the test system is KARPAS-422. Briefly: Antiproliferative activity against human KARPAS-422 cells assessed as cell growth inhibition measured after 7 to 10 days by celltitre-glo-luminescent assay. Conditions: time 7-10 day. It is filed as functional.
For data set [13], the target named is T1, Polycomb protein EED. Briefly: Binding affinity to human N-terminal His-6 tagged EED expressed in Escherichia coli strain […] by SPR analysis.
Target sequence in this assay (O75530 whole entry): as above
The nature of data set [14]: Solubility of the compound at pH 7.4. It counts as physicochemical. Conditions: buffer.
The subject of data set [15] is Pfeiffer. As to the kind of experiment: Antiproliferative activity against human Pfeiffer cells treated for 14 days. It counts as functional, cell-based. The settings on record: 336 h.
The test system of data set [16] is KARPAS-422. Briefly: Antiproliferative activity against human KARPAS-422 cells treated for 11 days. It counts as functional, cell-based. The settings on record: KARPAS-422, 264 h.
Data set [17] concerns the target T1, Polycomb protein EED. As to the kind of experiment: Inhibition of EED (unknown origin).
Target sequence in this assay (O75530 whole entry): as above
Data set [18] addresses T1, Polycomb protein EED. Conditions: dose 500.0 µM.
Target sequence in this assay (O75530 2-441 limits assumed): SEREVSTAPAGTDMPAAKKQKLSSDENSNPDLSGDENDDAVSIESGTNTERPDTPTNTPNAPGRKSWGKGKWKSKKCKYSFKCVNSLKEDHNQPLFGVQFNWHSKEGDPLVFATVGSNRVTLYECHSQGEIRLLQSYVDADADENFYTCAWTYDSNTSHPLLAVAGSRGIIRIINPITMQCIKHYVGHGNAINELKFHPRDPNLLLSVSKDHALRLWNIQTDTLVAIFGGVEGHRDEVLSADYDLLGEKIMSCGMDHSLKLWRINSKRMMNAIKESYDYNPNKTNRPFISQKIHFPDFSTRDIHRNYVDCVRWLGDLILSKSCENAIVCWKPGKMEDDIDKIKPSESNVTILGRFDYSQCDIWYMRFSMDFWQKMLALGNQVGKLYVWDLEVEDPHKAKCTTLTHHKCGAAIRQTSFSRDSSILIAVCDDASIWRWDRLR
Description: Binding affinity to GST-tagged EED (unknown origin) assessed as thermal stability by measuring melting temperature at 500 uM by TSA method
Data set [19] concerns the target T1, Polycomb protein EED. As to the kind of experiment: Binding affinity to EED (unknown origin) assessed as dissociation constant.
Target sequence in this assay (O75530 whole entry): as the sequence (O75530 whole entry) above
Data set [20] has as its target T1, Polycomb protein EED. Briefly: Inhibition of human EED (76 to 441 residues) expressed in Escherichia coli strain BL21(DE3) by alpha screen assay.
Target sequence in this assay (O75530 whole entry): as above
The target in data set [21] is T1, Polycomb protein EED. As to the kind of experiment: Binding affinity to full length EED (unknown origin) assessed as increase in melting temperature at 100 uM incubated for 30 mins by TSA. The settings on record: tested as the 2H-labelled form.
Target sequence in this assay (O75530 2-441 limits assumed): as the sequence (O75530 2-441 limits assumed) above
In data set [22] the target is T1, Polycomb protein EED. Briefly: Binding affinity to full length EED (unknown origin) assessed as increase in melting temperature at 50 uM incubated for 30 mins by TSA. The settings on record: tested as the 2H-labelled form.
Target sequence in this assay (O75530 2-441 limits assumed): as above
Data set [23] has as its system KARPAS-422. As to the kind of experiment: Antitumor activity against human KARPAS-422 cells xenografted in NOD/SCID mouse assessed as tumor growth inhibition at 100 mg/kg, bid, po for 36 days relative to control. Conditions: KARPAS-422, 864 h, time 36 day, read-out: TGI. It is filed as functional. Background: Xenograft models place foreign cells or tissue in a host animal.

For data set [24], the system named is KARPAS-422. As to the kind of experiment: Antitumor activity against human KARPAS-422 cells xenografted in NOD/SCID mouse assessed as tumor growth inhibition at 40 mg/kg, bid, po for 36 days relative to control. It is filed as functional. Conditions: KARPAS-422, 864 h, time 36 day, read-out: TGI.
The subject of data set [25] is KARPAS-422. Briefly: Antitumor activity against human KARPAS-422 cells assessed as tumor growth inhibition at 100 mg/kg, po, bid for 38 days relative to control. It counts as functional. Conditions: KARPAS-422, 912 h, time 38 day, read-out: TGI.
The test system of data set [26] is Pfeiffer. Briefly: Antitumor activity against human Pfeiffer cells assessed as tumor growth inhibition at 100 mg/kg, po, bid for 38 days relative to control. It counts as functional. The settings on record: 912 h, time 38 day, read-out: TGI.
Data set [27] relates to Pfeiffer. As to the kind of experiment: Antitumor activity against human Pfeiffer cells xenografted in NOD/SCID mouse assessed as tumor growth inhibition at 40 mg/kg, bid, po for 36 days relative to control. Conditions: 864 h, time 36 day, read-out: TGI. It is filed as functional.
A short description of data set [28]: Antitumor activity against […] cells xenografted in mouse assessed as tumor growth inhibition at 30 mg/kg relative to control. It is filed as functional. The settings on record: read-out: TGI.
Data set [29] deals with T1, Polycomb protein EED. As to the kind of experiment: Inhibition of His-tagged EED (unknown origin) incubated for 30 mins in presence of biotinylated H3K27me3 peptide (19 to 33 aa) by alpha screening competitive binding assay method.
The subject of data set [30] is Pfeiffer. As to the kind of experiment: Antitumor activity against human Pfeiffer cells xenografted in NOD/SCID mouse assessed as tumor growth inhibition at 100 mg/kg, bid, po for 36 days relative to control. It counts as functional. The settings on record: 864 h, time 36 day, read-out: TGI.

What is called IC50 is the concentration at which inhibition is half-maximal. One may read the Ki as a measure of affinity in units of concentration, obtained from inhibition or displacement. For `C[C@@H](CO)NC(=O)[C@@H]1C=C2c3cccc4[nH]cc(c34)C[C@H]2N(C)C1` [ERGONOVINE MALEATE], in [1], the IC50 was 366000 nM. In [2], the inhibitory constant (Ki) was 71100 nM.
In the same order, the values of `CN1CCc2cccc3c2[C@H]1Cc1ccc(O)c(O)c1-3` [APOMORPHINE HYDROCHLORIDE] are 15500 nM and 2900 nM.
The inhibition is the relative decrease from the control value, in per cent. Read a high inhibition as strong suppression. In turn, `O=C1Nc2ccc(S(=O)(=O)NCCCCCCNS(=O)(=O)c3ccc4c5c(cccc35)C(=O)N4)c3cccc1c23` gave an inhibition in the data set filed under Homo sapiens of 84%.
What is called Kd is the concentration at which binding is half-saturated. The compound `Cc1ncccc1-c1cnc(NCc2c(F)cc(N)c3c2CCO3)n2cnnc12` returned an IC50 in [3] of 50 nM. Further, on Polycomb protein EED [4], the equilibrium dissociation constant (Kd) is 0.5 nM.
Take `C=CC(=O)Nc1cc(Nc2nccc(-c3cn(C)c4ccccc34)n2)c(OC)cc1N(C)CCN(C)C` [OSIMERTINIB]: the IC50 with BC [5], with Lymphoma cell line [6], in the data set on BC [7] and in the data set with Lymphoma cell line [8] was 15 nM throughout.
Regarding `Cc1sc(NC(=O)CCCCC(=O)Nc2sc(C)c(C)c2C(N)=O)c(C(N)=O)c1C`, in data set [9], the IC50 was found to be 54900 nM.
With `CCCCc1ccc(Nc2nnc(SCc3occc3C(=O)O)s2)cc1`, in [10], the IC50 worked out at 32000 nM.
As usually defined, the GI50 is the concentration that inhibits growth by half. Consider `Cc1nc(CCC(=O)NCCCCC(=O)N[C@H](C(=O)N2C[C@H](O)C[C@H]2C(=O)NCc2ccc(-c3scnc3C)cc2)C(C)(C)C)ccc1-c1cnc(NCc2c(F)ccc3c2CCO3)n2cnnc12`, for which the IC50 against Polycomb protein EED [11] was 7.76 nM. The GI50 with KARPAS-422 [12] came to 57 nM. This compound gave a Kd on Polycomb protein EED [13] of 0.537 nM.
As a reminder, the solubility is the concentration that dissolves in the medium under given conditions. Consider `Cc1ncccc1-c1cnc(NCc2c(F)cc(F)c3c2CCO3)n2cnnc12`, for which, in [3], the IC50 worked out at 11 nM. For the same compound, in data set [14], the solubility is 4 µM (≈ 1.58 µg/mL). Also, at Polycomb protein EED [4], the Kd was 1.2 nM.
With `CCS(=O)(=O)N1CC=C(c2cnc(NCC3Cc4cc(F)ccc4O3)n3cnnc23)CC1` (stereo not drawn), the figures for the IC50 with Pfeiffer [15], in the data set on KARPAS-422 [16] and against Polycomb protein EED [17] were 0.8 nM, 4 nM and under 20 nM, respectively.
As to `CN1CC=C(c2cnc(NCC3Cc4cc(F)ccc4O3)c3nncn23)CC1` (stereo not drawn), the IC50 at Polycomb protein EED [17] is under 100 nM.
As for `Cc1ncsc1-c1ccc(CNC(=O)[C@@H]2C[C@@H](O)CN2C(=O)[C@@H](NC(=O)COc2ccc(OCCNC(=O)CCc3ccc(-c4cnc(NCc5c(F)ccc6c5CCO6)n5cnnc45)c(N)n3)cc2)C(C)(C)C)cc1`, on Polycomb protein EED [11], the IC50 is 6.76 nM. Also, the GI50 in the data set on KARPAS-422 [12] is 45 nM. The compound further had a Kd on Polycomb protein EED [13] of 0.631 nM.
As usually defined, the ΔTm is the shift of the melting midpoint relative to a reference. `CN(C)[C@@H]1CN(C2CCc3cccc(F)c32)C[C@H]1c1ccc(N2CCN(S(C)(=O)=O)CC2)cc1` (stereo partly drawn): the ΔTm at Polycomb protein EED [18] turned out to be 18 °C.
For `Cc1nc(NCc2c(F)ccc3c2CCO3)sc1-c1ccnn1C`, the Kd on Polycomb protein EED [19] came out at 900 nM. Further, the IC50 on Polycomb protein EED [20] amounted to 2100 nM.
Consider `Cc1cc(-c2cnc(NCC3Cc4cc(F)ccc4O3)n3cc(C#N)nc23)n(C)n1` (stereo not drawn), for which the IC50 on Polycomb protein EED [17] was under 100 nM.
Take `Cc1ncccc1-c1cnc(NCc2c(F)ccc3c2CCO3)n(C)c1=O`: the ΔTm is 10 °C at Polycomb protein EED [21] and 6 °C on Polycomb protein EED [22].
As to `[2H]C([2H])(Nc1ncc(-c2cccnc2C)c(=O)n1C)c1c(F)ccc2c1CCO2`, the inhibition in vivo at 100 mg/kg turned out to be 85% in the data set on KARPAS-422 [23], 85% in the data set on KARPAS-422 [25], 96% in the data set with Pfeiffer [26] and 96% in the data set on Pfeiffer [30]. Moreover, the inhibition in vivo at 40 mg/kg in the data set with KARPAS-422 [24] was 75%; with Pfeiffer [27] it was 83%. Further, the concentration for half-maximal inhibition (IC50) on Polycomb protein EED [17] and at Polycomb protein EED [29] was 4.5 nM each time. For the same compound, in [28], the inhibition in vivo at 30 mg/kg amounted to 59.3%.
In the case of `Cc1ncccc1-c1cc2c(n3cnnc13)NCc1c(F)ccc3c1[C@H](CO3)CO2` [POCIREDIR], the Kd at Polycomb protein EED [19] came out at 163 nM.
At Polycomb protein EED [17], `Cc1ncccc1-c1cnc(NCC2Cc3cc(F)ccc3O2)c2nncn12` (stereo not drawn) yielded an IC50 of under 100 nM.
